What was measured:
Phakopsora pachyrhizi [1] = assay: Soybean leaf disc assay with wettable powder formulations, control of Asian soybean rust; assay type: in vivo; settings: soybean leaf discs, 150 μL, azoxystrobin 0.25 ppm as control
Procedure: For the tray drying method, 829 grams of cell paste obtained from a liquid culture of ATP15329 was mixed with 18.24 g of glycerol and 72.95 g of microcel E using a food processor. Half of the cell paste was dried at 40° C. to a water activity of less than 0.30, at which time it contained 3.53E11 CFU/g. The other half was dried at 25° C. and 50% RH to a water activity of less than 0.6, at which time it contained 4.75E11 CFU/g. The dried powder formulation was stored in heat sealed mylar pouches at 4° C.
For the spray drying method, 200 grams of cell paste obtained from a liquid culture of ATP15329 was mixed with 22 g of skim milk powder using an emulsion blender. This material was spray dried at outlet temperature of 70° C., at which time it contained 7.86E10 CFU/g. The dried powder formulation was stored in heat sealed mylar pouches at 4° C.
This evaluation followed the protocol used in Example 5. Briefly, leaf disks were each sprayed with 150 μL of different formulations of the bacterial strain AIP015329, azoxystrobin (0.25 ppm) (fungicide control) on the abaxial surface with 150 μl using a fingertip sprayer (Container & Packaging Supply, Eagle, ID) fitted to a 15 mL conical centrifuge tube. Leaf disks were placed adaxial side down on saturated 20×20 cm filter paper in a plastic container (Blister Box 20×20 cm, Placon, Madison, WI); two filter papers were used per box. Boxes with leaf disks were incubated at room temperature in the dark, 24 hours later, leaf disks in the box were inoculated as described earlier. Inoculated and non-inoculated/not treated controls were added. After inoculation, boxes were maintained and incubated as described in the first-round evaluations.
Data recorded were numbers of uredinia in 1-cm diameter circle recorded 14 days after inoculation. […] Data were analyzed using analysis of variance (ANOVA) in PROC GLM of SAS (version 9.4; SAS Institute Inc., Cary, NC) and significant differences (P<0.05) were observed among treatments (Table 9).

Phakopsora pachyrhizi [2] = assay: Soybean leaf disk assay, control of Asian soybean rust; assay type: in vivo; settings: soybean leaf disks, strain 1×10^8 CFU/mL, azoxystrobin 0.5 ppm
Procedure: For detached-leaf assays performed in the following examples, bacterial strains stored in a freezer (−80° C.) were each streaked onto Luria Bertani (LB) agar (25 g LB broth and 15 g agar per liter of deionized water) in an 8.5-cm diameter plastic plate. A single colony from the plate was picked and placed in 50 ml of either LB liquid broth or a liquid broth consisting of NaCl (5 g), tryptone (10 g), nutrient broth (8 g), CaCl2 (0.14 mM), MgCl2·6H2O (0.2 mM), and MnCl2·4H2O (0.01 mM) per liter of deionized water in a 250-ml flask. Calcium chloride (CaCl2), MgCl2, and MnCl2 were filtered sterilized using 0.22 μm vacuum filter and were then added to NaCl, tryptone, nutrient broth (which were autoclaved together). Cultures were harvested after 48 h by pelleting cells and re-suspending to original volume in sterile H2O. Colony forming units (CFU/mL) were determined using standard dilution plate count method, and plates were inspected for signs of contamination. Sterile distilled water was added to achieve a final concentration needed in detached-leaf or growth chamber strain evaluations.
The susceptible soybean cultivar Williams 82 was used in strain evaluation using the detached-leaf technique (Twizeyimana and Hartman, 2010). […]
Data recorded were numbers of uredinia in 1-cm diameter circle recorded 14 days after inoculation. […]

In the case of `CO/C=C(/C(=O)OC)c1ccccc1Oc1cc(Oc2ccccc2C#N)ncn1` [Azoxystrobin, azoxystrobin], the “Disease Control (%) Spray dry” value (Phakopsora pachyrhizi [1]; spray dried formulation of the strain, 14 days after inoculation) is reported as 100 (a) %, the “Disease Control (%) Tray dry Dried at 25° C.” value (Phakopsora pachyrhizi [1]; tray dried formulation dried at 25° C.) is reported as 100 (a) % and the “Disease Control (%) Tray dry Dried at 40° C.” value (Phakopsora pachyrhizi [1]; tray dried formulation dried at 40° C.) is reported as 100 (a) %. The “Disease Control (%) Confirmation” value (Phakopsora pachyrhizi [2]; confirmation) was 95.7 (a) % and the “Disease Control (%) Primary Screen” value (Phakopsora pachyrhizi [2]; uredinia counted 14 days after inoculation) was 99.8 (a) %.

— patent US20240251801A1, “COMPOSITIONS AND METHODS FOR IMPROVING PLANT HEALTH AND CONTROLLING PLANT DISEASE” (AgBiome, Inc., priority 2021, published 2024)
